Data reported in article doi:10.1101/2025.09.30.679521v1, “Crystallographic characterisation and development of bi-substrate inhibitors of coronavirus nsp14 methyltransferase” (biorxiv, 2025).
Values after ≈ are worked out from the molar mass of the structure shown. Where two headings read alike, the source gives them in different places.

Tests used:
[1] = target: HCoV-NL63 nsp14 (Human coronavirus NL63, UniProt P0C6X5); test: RapidFire MS methyltransferase assay; format: biochemical
Excerpt: RapidFire MS methyltransferase assay on HCoV-NL63 nsp14

[2] = target: T1, human RNMT (Homo sapiens, UniProt O43148); test: RNMT methyltransferase assay (Gray et al.); format: biochemical
Excerpt: RNMT methyltransferase assay (Gray et al.) on human RNMT

[3] = target: T2, HCoV-229E nsp14 (Human coronavirus 229E, UniProt P0C6X1); test: RapidFire MS methyltransferase assay; format: biochemical
T2 construct: gene rep
Excerpt: RapidFire MS methyltransferase assay on HCoV-229E nsp14

[4] = target: T3, SARS-CoV-2 nsp14 (Severe acute respiratory syndrome coronavirus 2, UniProt P0DTD1); test: RapidFire MS methyltransferase assay; format: biochemical
T3 construct: gene rep
Excerpt: RapidFire MS methyltransferase assay on SARS-CoV-2 nsp14

[5] = in vitro; design: MDCK permeability; settings: dog, MDCK
[6] = physchem
[7] = target: T4, MERS-CoV nsp14 (Betacoronavirus England 1, UniProt K9N7C7); test: biochemical
T4 construct: gene rep

[8] = in vitro; design: mouse liver microsomal stability; settings: liver microsomes; Mouse liver microsomes; read-out: Mouse liver Mic T1/2 / min
Excerpt: We initiated our structure-activity relationship (SAR) studies by investigating various replacements for the benzothiazole group, compounds 2-17, Table 1. […] Relatively flat SAR is observed across this subset of compounds, indeed a 6,5 or 6,6 aromatic system with the appropriate connectivity as compound 1 display relatively similar potencies. […] In general, the mouse microsomal clearance was rather low for this set of molecules, with no significant instabilities introduced, with perhaps the exception of compound 4. With no significant advantages in either potency or mouse microsomal clearance (Table S2) identified for this subset, the benzothiazole was taken forward into subsequent SAR studies. Table 2. Enzymatic inhibition against SARS-CoV-2 nsp14, human RNMT, CHI-logD and mouse microsomal stability.

[9] = physchem; remark: listed apart in the source
[10] = physchem; design: solubility
Excerpt: Table 5. Selected compounds with cellular potency. The apparent EC50 values in the cytopathic effect assay are shown, along with the toxicity effect CC50

[11] = tested on: SARS-CoV-2; test: microbe, parasite or virus in culture; design: species or system Vero E6; antiviral cytopathic effect assay with SARS-CoV-2 in Vero E6 cells; settings: Severe acute respiratory syndrome coronavirus 2, Vero C1008; read-out: CPE assay EC50 /
[12] = in vitro; design: cytotoxicity alongside the cytopathic effect assay in Vero E6 cells; settings: african green monkey, vero e6 cells; read-out: CPE assay CC50 /
Excerpt: This may be due to the increased rigidity of the alkene linkage and a lower entropic penalty upon binding. As a matched pair to the previously reported compounds 32 and 34, we selected potent and stable compound 33 and 40, with the same change of adenosine base, Base A, to Base B and measure the antiviral activity. […] One potential reason for this disparity may be attributed to the differing experimental conditions used in the two assays and requires further investigation. […] Therefore, consistent with the body of the literature, we observed no significant antiviral activity against SARS-CoV-2 for this class of compounds. We hypothesise that as the compounds bind in both the SAM and the RNA pocket of nsp14 and are therefore competitive with both substrates, in the cellular context there is a significant competition with intracellular SAM/SAH and the viral RNA, which is likely present at a higher concentration than used in the biochemical assay. The concentration of SAM used in the SARS-CoV-2 nsp14 assay is 1.0 µM and although measurements of SAM or SAH concentrations in Vero E6 cells haven’t been reported, others have reported intracellular concentrations of SAM of 354 µM in other cell lines.[30] The concentration of the viral RNA substrate in cellulo and increased effective concentrations from the proximity of other nsp proteins involved in viral RNA production may also play a role that is further not captured in the bioche Table 5. Selected compounds with cellular potency. The apparent EC50 values in the cytopathic effect assay are shown, along with the toxicity effect CC50

[13] = tested on: SARS-CoV-2; test: microbe, parasite or virus in culture; design: species or system Vero E6; antiviral cytopathic effect assay with SARS-CoV-2 in Vero E6 cells; settings: Severe acute respiratory syndrome coronavirus 2, Vero C1008; read-out: CPE assay EC50 /; remark: listed apart in the source
[14] = in vitro; design: MDCK permeability; settings: dog, MDCK; remark: listed apart in the source
[15] = target: T1, human RNMT; test: biochemical; design: human RNMT methyltransferase inhibition
[16] = physchem; remark: listed apart in the source
[17] = SAM and RNA cap substrate at KM (SAM 1.0 µM), read-out: IC50

Chain of HCoV-NL63 nsp14 (P0C6X5 5568-6085): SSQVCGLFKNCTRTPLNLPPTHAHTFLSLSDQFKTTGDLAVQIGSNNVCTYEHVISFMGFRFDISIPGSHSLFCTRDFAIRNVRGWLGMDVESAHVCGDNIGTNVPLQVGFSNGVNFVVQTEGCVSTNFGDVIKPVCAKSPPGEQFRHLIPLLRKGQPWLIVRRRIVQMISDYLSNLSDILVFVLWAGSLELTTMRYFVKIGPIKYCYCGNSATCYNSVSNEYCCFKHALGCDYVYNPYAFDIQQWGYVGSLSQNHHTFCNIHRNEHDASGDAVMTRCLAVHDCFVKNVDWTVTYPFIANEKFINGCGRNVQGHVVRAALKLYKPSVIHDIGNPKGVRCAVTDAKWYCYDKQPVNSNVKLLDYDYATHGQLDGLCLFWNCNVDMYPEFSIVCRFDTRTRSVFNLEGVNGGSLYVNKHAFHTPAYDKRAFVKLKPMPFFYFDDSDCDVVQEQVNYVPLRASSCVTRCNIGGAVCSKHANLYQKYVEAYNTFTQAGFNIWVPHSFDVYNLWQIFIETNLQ
T1 sequence (O43148 whole entry): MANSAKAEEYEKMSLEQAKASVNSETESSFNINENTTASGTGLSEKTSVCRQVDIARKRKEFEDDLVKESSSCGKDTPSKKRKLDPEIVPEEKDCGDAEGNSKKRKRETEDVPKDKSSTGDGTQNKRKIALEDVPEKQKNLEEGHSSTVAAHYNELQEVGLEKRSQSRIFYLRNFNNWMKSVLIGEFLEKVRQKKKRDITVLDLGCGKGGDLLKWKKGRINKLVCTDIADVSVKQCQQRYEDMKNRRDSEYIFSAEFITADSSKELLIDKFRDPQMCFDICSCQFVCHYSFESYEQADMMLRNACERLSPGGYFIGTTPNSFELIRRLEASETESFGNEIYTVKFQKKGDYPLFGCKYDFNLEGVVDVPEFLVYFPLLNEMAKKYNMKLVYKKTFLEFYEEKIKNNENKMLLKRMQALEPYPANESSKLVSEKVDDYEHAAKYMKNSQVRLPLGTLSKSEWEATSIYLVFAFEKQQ
T2 sequence (P0C6X1 5593-6110): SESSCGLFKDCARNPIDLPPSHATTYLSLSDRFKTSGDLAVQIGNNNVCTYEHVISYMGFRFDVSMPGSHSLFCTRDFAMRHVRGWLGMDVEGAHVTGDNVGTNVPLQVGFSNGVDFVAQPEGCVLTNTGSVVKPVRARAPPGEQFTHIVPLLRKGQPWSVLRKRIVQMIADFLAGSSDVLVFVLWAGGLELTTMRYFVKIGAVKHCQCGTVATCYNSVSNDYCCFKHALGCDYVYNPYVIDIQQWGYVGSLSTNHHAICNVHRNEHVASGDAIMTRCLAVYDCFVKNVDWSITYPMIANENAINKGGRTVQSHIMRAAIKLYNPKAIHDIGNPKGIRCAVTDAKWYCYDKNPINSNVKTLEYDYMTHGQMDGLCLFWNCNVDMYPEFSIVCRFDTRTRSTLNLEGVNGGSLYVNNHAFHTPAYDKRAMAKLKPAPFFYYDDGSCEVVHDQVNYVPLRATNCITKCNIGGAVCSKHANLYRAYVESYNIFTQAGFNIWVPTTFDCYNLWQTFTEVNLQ
T4 sequence (K9N7C7 5909-6432 limits assumed): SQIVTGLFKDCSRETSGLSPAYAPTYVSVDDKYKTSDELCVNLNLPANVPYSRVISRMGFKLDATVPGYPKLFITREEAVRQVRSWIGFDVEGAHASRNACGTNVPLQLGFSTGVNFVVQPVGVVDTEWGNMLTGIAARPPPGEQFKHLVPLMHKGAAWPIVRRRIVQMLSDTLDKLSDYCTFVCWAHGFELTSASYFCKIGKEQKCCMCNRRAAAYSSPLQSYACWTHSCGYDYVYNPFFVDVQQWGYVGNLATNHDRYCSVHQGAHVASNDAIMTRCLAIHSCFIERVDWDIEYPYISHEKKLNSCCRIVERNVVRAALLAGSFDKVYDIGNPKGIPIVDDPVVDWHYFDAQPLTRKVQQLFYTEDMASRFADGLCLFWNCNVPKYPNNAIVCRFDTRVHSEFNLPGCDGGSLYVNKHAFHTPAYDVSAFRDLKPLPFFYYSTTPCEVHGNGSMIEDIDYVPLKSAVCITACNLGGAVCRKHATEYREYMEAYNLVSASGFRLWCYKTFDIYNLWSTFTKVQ

SMILES	IC50 ([1]; read-out: IC50) [nM]	IC50 [2] [nM]	IC50 ([3]; read-out: IC50) [nM]	IC50 ([4]; read-out: IC50) [nM]	half-life [8] [min]	logD [9]	further results
Nc1ncnc2c1ncn2[C@@H]1O[C@H](CNS(=O)(=O)c2ccc3ccccc3c2)[C@@H](O)[C@H]1O [compound 32]	530 ± 120	> 100000	300 ± 10	130 ± 40	–	–	Papp [5]: 1.2 ×10⁻⁶ cm/s; logD [6]: 1.5
Nc1ncnc2c1ncn2[C@@H]1C[C@H](CSc2nc3ccccc3s2)[C@@H](O)[C@H]1O [compound 26]	8 ± 3	> 100000	21 ± 4	53 ± 30	> 30	–	IC50 [7]: 730 nM; logD [6]: 1.5
CN(C)c1ncnc2c1ncn2[C@@H]1O[C@H](CSc2nc3ccccc3s2)[C@@H](O)[C@H]1O [compound 19]	–	–	–	–	–	1.8	IC50 [4, 17]: > 100000 nM
OC1C(CSc2nc3ccccc3s2)OC(n2cnc3c(NC4CCCC4)ncnc32)C1O (stereo not drawn) [compound 20]	–	–	–	–	–	2.5	IC50 [4, 17]: > 100000 nM
CNc1ncnc2c1ncn2[C@@H]1O[C@H](CSc2nc3ccccc3s2)[C@@H](O)[C@H]1O [compound 18]	–	–	–	2100 ± 200	–	1.3	–
Nc1ncnn2c([C@@H]3O[C@H](/C=C/c4nc5ccccc5s4)[C@@H](O)[C@H]3O)ccc12 [compound 40, (2S,3R,4S,5R)-2-(4-aminopyrrolo[2,1-f][1,2,4]triazin-7-yl)-5-[(E)-2-(1,3-benzothiazol-2-yl)vinyl]tetrahydrofuran-3,4-diol]	–	–	–	–	> 30	–	solubility [10]: 4.7 µM (≈ 1.86 µg/mL); EC50 [11]: > 10000 nM; CC50 [12]: > 10000 nM
Nc1ncnc2c1ncn2[C@@H]1O[C@H](/C=C/c2nc3ccccc3s2)[C@@H](O)[C@H]1O [compound 33, (2R,3R,4S,5R)-2-(6-Aminopurin-9-yl)-5-[(E)-2-(1,3-benzothiazol-2-yl)vinyl]tetrahydrofuran-3,4-diol]	–	–	–	–	> 30	–	solubility [10]: 18.2 µM (≈ 7.22 µg/mL); EC50 [13]: 8700 nM; CC50 [12]: 21000 nM
O[C@@H]1[C@H](O)[C@@H](CSc2nc3ccccc3s2)O[C@H]1n1cnc2c(NC3COC3)ncnc21 [compound 22]	–	–	–	–	–	1.4	–
Nc1ncnn2c([C@@H]3O[C@H](CNS(=O)(=O)c4ccc5ccccc5c4)[C@@H](O)[C@H]3O)ccc12 [compound 34]	760 ± 310	27700	320 ± 10	170 ± 30	–	–	Papp [14]: 1 ×10⁻⁶ cm/s; logD [6]: 1.6
Nc1ncnc2c1ncn2[C@@H]1O[C@H](CCc2nc3ccccc3s2)[C@@H](O)[C@H]1O [compound 25]	–	–	–	310 ± 70	> 30	1	IC50 [15]: > 100000 nM
Nc1ncnc2c1ncn2[C@@H]1O[C@H](CNS(=O)(=O)c2ccc3ccccc3c2)[C@@H](O)[C@H]1O [compound 32, N-[[(2R,3S,4R,5R)-5-(6-Aminopurin-9-yl)-3,4-dihydroxy-tetrahydrofuran-2-yl]methyl]naphthalene-2-sulfonamide]	–	–	–	–	> 30	–	solubility [10]: 213 µM (≈ 97.2 µg/mL); EC50 [13]: > 100000 nM; CC50 [12]: > 100000 nM
Nc1ncnc2c1ncn2[C@@H]1O[C@H](/C=C/c2nc3ccccc3s2)[C@@H](O)[C@H]1O [compound 33]	17 ± 1	> 100000	51 ± 9	36 ± 10	–	–	Papp [5]: 4.9 ×10⁻⁶ cm/s; logD [6]: 1.3
CCCCCCSC[C@H]1O[C@@H](n2cnc3c(N)ncnc32)[C@H](O)[C@@H]1O [compound 4]	–	> 100000	–	–	13.2	–	IC50 [1]: 3300 ± 300 nM; IC50 [3]: 9000 ± 1400 nM; IC50 [4]: 6100 ± 1100 nM; logD [16]: 2
Nc1ncnn2c([C@@H]3O[C@H](CNS(=O)(=O)c4ccc5ccccc5c4)[C@@H](O)[C@H]3O)ccc12 [compound 34, N-[[(2R,3S,4R,5S)-5-(4-Aminopyrrolo[2,1-f][1,2,4]triazin-7-yl)-3,4-dihydroxy-tetrahydrofuran-2-yl]methyl]naphthalene-2-sulfonamide]	–	–	–	–	9.9	–	solubility [10]: 226 µM (≈ 103 µg/mL); EC50 [11]: 30000 nM; CC50 [12]: > 100000 nM
CC(C)Nc1ncnc2c1ncn2[C@@H]1O[C@H](CSc2nc3ccccc3s2)[C@@H](O)[C@H]1O [compound 21]	–	–	–	> 100000	–	2.1	IC50 [15]: > 100000 nM
Nc1ncnc2c1ncn2[C@@H]1O[C@H](CNc2nc3ccccc3s2)[C@@H](O)[C@H]1O [compound 24]	–	54600	–	> 100000	–	0.7	–
Cc1ccc2nc(SC[C@H]3O[C@@H](n4cnc5c(N)ncnc54)[C@H](O)[C@@H]3O)sc2c1 [compound 2]	–	> 100000	–	–	> 30	–	IC50 [1]: 110 ± 20 nM; IC50 [3]: 410 ± 80 nM; IC50 [4]: 260 ± 70 nM; logD [16]: 1.6
Nc1ncnn2c([C@@H]3O[C@H](/C=C/c4nc5ccccc5s4)[C@@H](O)[C@H]3O)ccc12 [compound 40]	13 ± 6	–	49 ± 1	83 ± 100	–	–	Papp [14]: 12.8 ×10⁻⁶ cm/s; logD [6]: 1.5
Nc1ncnc2c1ncn2[C@@H]1O[C@H](COc2nc3ccccc3s2)[C@@H](O)[C@H]1O [compound 23]	–	–	–	> 100000	–	0.5	IC50 [15]: > 100000 nM
Nc1ncnc2c1ncn2[C@@H]1O[C@H](CSc2ccc3cccnc3c2)[C@@H](O)[C@H]1O [compound 10]	170 ± 40	> 100000	580 ± 100	360 ± 110	> 30	–	logD [16]: 0.6
